Test results: US20220289679A1, “HETEROCYCLIC COMPOUND” (Takeda Pharmaceutical Company Limited, priority 2019, published 2022)

What follows are compounds tested against T1, human GCS (glucosylceramide synthase) (Homo sapiens, UniProt Q16739) (assay: Glucosylceramide Synthase (GCS) Assay). Settings: test compound 10 μM; microsome fraction of Expi293F cells expressing human GCS; 1.7 μM UDP-glucose, 3 μM C8 ceramide; room temperature 60 min; C8 glucosylceramide by Rapidfire MS/MS; read-out: GCS enzyme inhibitory rate at 10 μM (%).
T1 construct: made in house; host or cells: Expi293F cells (transient expression; microsome fraction)
T1 sequence (Q16739 1-394): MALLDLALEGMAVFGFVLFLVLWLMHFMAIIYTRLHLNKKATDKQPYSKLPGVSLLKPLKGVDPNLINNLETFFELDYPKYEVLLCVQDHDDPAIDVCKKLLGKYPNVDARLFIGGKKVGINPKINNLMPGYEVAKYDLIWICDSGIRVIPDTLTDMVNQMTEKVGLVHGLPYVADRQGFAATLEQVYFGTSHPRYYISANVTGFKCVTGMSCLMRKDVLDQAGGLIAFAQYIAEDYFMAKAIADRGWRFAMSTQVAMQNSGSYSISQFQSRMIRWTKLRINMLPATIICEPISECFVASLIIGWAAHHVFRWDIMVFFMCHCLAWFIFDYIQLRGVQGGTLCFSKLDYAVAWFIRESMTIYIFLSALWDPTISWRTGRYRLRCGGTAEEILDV
Type: biochemical
Outline: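 Enzyme source was a microsome fraction from Expi293F cells transiently expressing human GCS. Reaction ran 60 min at room temperature in 20 mM Tris pH 7.5 with 1.7 μM UDP-glucose (Km) and 3 μM liposomal C8 ceramide, compound at 10 μM final. C8 glucosylceramide quantified by RapidFire MS/MS; inhibition scaled between enzyme-free and DMSO controls.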
`O=C(Nc1ccc(C(O)(C(F)F)C(F)F)nc1)c1ccnn(-c2ccc(F)cc2OCC(F)(F)F)c1=O` [Example 117, 2-[4-fluoro-2-(2,2,2-trifluoroethoxy)phenyl]-3-oxo-N-[6-(1,1,3,3-tetrafluoro-2-hydroxypropan-2-yl)pyridin-3-yl]-2,3-dihydropyridazine-4-carboxamide] gave an inhibition at 10 µM of 100%.
`O=C(Nc1ccc(C(O)(C(F)F)C(F)F)nc1)c1cccn(-c2cc(F)c(F)cc2OCC(F)(F)F)c1=O` [Example 118, 1-[4,5-difluoro-2-(2,2,2-trifluoroethoxy)phenyl]-2-oxo-N-[6-(1,1,3,3-tetrafluoro-2-hydroxypropan-2-yl)pyridin-3-yl]-1,2-dihydropyridine-3-carboxamide] was tested, and the inhibition at 10 µM was 97%.
`CC(C)(O)c1ccc(NC(=O)c2cccn(-c3ncncc3OCC(F)(F)F)c2=O)cn1` [Example 119, N-[6-(2-hydroxypropan-2-yl)pyridin-3-yl]-2-oxo-1-[5-(2,2,2-trifluoroethoxy)pyrimidin-4-yl]-1,2-dihydropyridine-3-carboxamide] gave an inhibition at 10 µM of 74%.
`CC(C)(O)c1ccc(NC(=O)c2cccn(-c3cccnc3OCC(F)(F)F)c2=O)cn1` [Example 120, N-[6-(2-hydroxypropan-2-yl)pyridin-3-yl]-2-oxo-2′-(2,2,2-trifluoroethoxy)-2H-[1,3′-bipyridine]-3-carboxamide] was tested, and the inhibition at 10 µM was 74%.
`O=C(Nc1ccc(C(O)(C(F)F)C(F)F)nc1)c1cccn(-c2ccnnc2OCC(F)(F)F)c1=O` [Example 122, 2-oxo-N-[6-(1,1,3,3-tetrafluoro-2-hydroxypropan-2-yl)pyridin-3-yl]-1-[3-(2,2,2-trifluoroethoxy)pyridazin-4-yl]-1,2-dihydropyridine-3-carboxamide] was tested, and the inhibition at 10 µM was 95%.
`O=C(Nc1ccc(C(O)(C(F)F)C(F)F)nc1)c1cccn(-c2cccnc2OCC(F)(F)F)c1=O` [Example 123, 2-oxo-N-[6-(1,1,3,3-tetrafluoro-2-hydroxypropan-2-yl)pyridin-3-yl]-2′-(2,2,2-trifluoroethoxy)-2H-[1,3′-bipyridine]-3-carboxamide] was tested, and the inhibition at 10 µM was 99%.
Compound `O=C(Nc1ccc(C(O)(C(F)F)C(F)F)nc1)c1cccn(-c2cc(F)ccc2OCC(F)(F)F)c1=O` [Example 124, 1-[5-fluoro-2-(2,2,2-trifluoroethoxy)phenyl]-2-oxo-N-[6-(1,1,3,3-tetrafluoro-2-hydroxypropan-2-yl)pyridin-3-yl]-1,2-dihydropyridine-3-carboxamide] has an inhibition at 10 µM of 99%.
Compound `CC(C)(O)c1ccc(NC(=O)c2cccn(-c3cc(F)ccc3OCC(F)(F)F)c2=O)cn1` [Example 125, 1-[5-fluoro-2-(2,2,2-trifluoroethoxy)phenyl]-N-[6-(2-hydroxypropan-2-yl)pyridin-3-yl]-2-oxo-1,2-dihydropyridine-3-carboxamide] has an inhibition at 10 µM of 82%.
`CC(C)(O)c1ccc(NC(=O)c2ccnn(-c3ccccc3OCC(F)(F)F)c2=O)cn1` [Example 126, N-[6-(2-hydroxypropan-2-yl)pyridin-3-yl]-3-oxo-2-[2-(2,2,2-trifluoroethoxy)phenyl]-2,3-dihydropyridazine-4-carboxamide] was tested, and the inhibition at 10 µM was 97%.
`CC(C)(O)c1ccc(NC(=O)c2ccnn(-c3ccccc3OCC(F)(F)F)c2=O)cc1` [Example 127, N-[4-(2-hydroxypropan-2-yl)phenyl]-3-oxo-2-[2-(2,2,2-trifluoroethoxy)phenyl]-2,3-dihydropyridazine-4-carboxamide] showed an inhibition at 10 µM of 100%.
`CC(C)(O)c1ccc(NC(=O)c2ccnn(-c3ccccc3OCC(F)(F)F)c2=O)nc1` [Example 128, N-[5-(2-hydroxypropan-2-yl)pyridin-2-yl]-3-oxo-2-[2-(2,2,2-trifluoroethoxy)phenyl]-2,3-dihydropyridazine-4-carboxamide] showed an inhibition at 10 µM of 98%.
Work on `Cc1cc(C(=O)Nc2ccc(C(C)(C)O)nc2)c(=O)n(-c2ccccc2OCC(F)(F)F)n1` [Example 129, N-[6-(2-hydroxypropan-2-yl)pyridin-3-yl]-6-methyl-3-oxo-2-[2-(2,2,2-trifluoroethoxy)phenyl]-2,3-dihydropyridazine-4-carboxamide] yielded an inhibition at 10 µM of 99%.
In the case of `Cc1cc(C(=O)Nc2ccc(C(C)(C)O)cn2)c(=O)n(-c2ccccc2OCC(F)(F)F)n1` [Example 130, N-[5-(2-hydroxypropan-2-yl)pyridin-2-yl]-6-methyl-3-oxo-2-[2-(2,2,2-trifluoroethoxy)phenyl]-2,3-dihydropyridazine-4-carboxamide], the inhibition at 10 µM is reported as 99%.
Compound `Cc1cc(C(=O)Nc2ccc(C(C)(C)O)cc2)c(=O)n(-c2ccccc2OCC(F)(F)F)n1` [Example 131, N-[4-(2-hydroxypropan-2-yl)phenyl]-6-methyl-3-oxo-2-[2-(2,2,2-trifluoroethoxy)phenyl]-2,3-dihydropyridazine-4-carboxamide] has an inhibition at 10 µM of 100%.
For `CC(C)(O)c1ccc(NC(=O)c2ccnn(-c3ccccc3OCC(F)F)c2=O)nc1` [Example 132, 2-[2-(2,2-difluoroethoxy)phenyl]-N-[5-(2-hydroxypropan-2-yl)pyridin-2-yl]-3-oxo-2,3-dihydropyridazine-4-carboxamide], the inhibition at 10 µM was 96%.
`CC(C)(O)c1ccc(NC(=O)c2ccnn(-c3ccccc3OCC(F)F)c2=O)cc1` [Example 133, 2-[2-(2,2-difluoroethoxy)phenyl]-N-[4-(2-hydroxypropan-2-yl)phenyl]-3-oxo-2,3-dihydropyridazine-4-carboxamide] was tested, and the inhibition at 10 µM was 100%.
For `CC(C)(O)c1ccc(NC(=O)c2ccnn(-c3ccccc3OCC(F)F)c2=O)cn1` [Example 134, 2-[2-(2,2-difluoroethoxy)phenyl]-N-[6-(2-hydroxypropan-2-yl)pyridin-3-yl]-3-oxo-2,3-dihydropyridazine-4-carboxamide], the inhibition at 10 µM was 94%.
In the case of `Cc1cc(C(=O)Nc2ccc(C(C)(C)O)nc2)c(=O)n(-c2ccccc2OCC(F)F)n1` [Example 135, 2-[2-(2,2-difluoroethoxy)phenyl]-N-[6-(2-hydroxypropan-2-yl)pyridin-3-yl]-6-methyl-3-oxo-2,3-dihydropyridazine-4-carboxamide], the inhibition at 10 µM is reported as 98%.
Work on `Cc1cc(C(=O)Nc2ccc(C(C)(C)O)cc2)c(=O)n(-c2ccccc2OCC(F)F)n1` [Example 136, 2-[2-(2,2-difluoroethoxy)phenyl]-N-[4-(2-hydroxypropan-2-yl)phenyl]-6-methyl-3-oxo-2,3-dihydropyridazine-4-carboxamide] yielded an inhibition at 10 µM of 100%.
Compound `Cc1cc(C(=O)Nc2ccc(C(C)(C)O)cn2)c(=O)n(-c2ccccc2OCC(F)F)n1` [Example 137, 2-[2-(2,2-difluoroethoxy)phenyl]-N-[5-(2-hydroxypropan-2-yl)pyridin-2-yl]-6-methyl-3-oxo-2,3-dihydropyridazine-4-carboxamide] has an inhibition at 10 µM of 99%.
In the case of `Cc1cc(C(=O)Nc2ccc(C3COC3)cc2)c(=O)n(-c2ccccc2OCC(F)F)n1` [Example 141, 2-[2-(2,2-difluoroethoxy)phenyl]-6-methyl-N-[4-(oxetan-3-yl)phenyl]-3-oxo-2,3-dihydropyridazine-4-carboxamide], the inhibition at 10 µM is reported as 99%.
`Cc1cc(NC(=O)c2ccnn(-c3ccccc3OCC(F)F)c2=O)ccc1C(C)(C)O` [Example 142, 2-[2-(2,2-difluoroethoxy)phenyl]-N-[4-(2-hydroxypropan-2-yl)-3-methylphenyl]-3-oxo-2,3-dihydropyridazine-4-carboxamide] was tested, and the inhibition at 10 µM was 98%.
Compound `Cc1cc(C(C)(C)O)ccc1NC(=O)c1ccnn(-c2ccccc2OCC(F)F)c1=O` [Example 143, 2-[2-(2,2-difluoroethoxy)phenyl]-N-[4-(2-hydroxypropan-2-yl)-2-methylphenyl]-3-oxo-2,3-dihydropyridazine-4-carboxamide] has an inhibition at 10 µM of 97%.
In the case of `Cc1cc(C(=O)Nc2ccc(C(C)(C)O)cc2F)c(=O)n(-c2ccccc2OCC(F)F)n1` [Example 146, 2-[2-(2,2-difluoroethoxy)phenyl]-N-[2-fluoro-4-(2-hydroxypropan-2-yl)phenyl]-6-methyl-3-oxo-2,3-dihydropyridazine-4-carboxamide], the inhibition at 10 µM is reported as 100%.
Work on `CC(C)(O)c1ccc(NC(=O)c2ccnn(-c3ccccc3OCC(F)F)c2=O)c(F)c1` [Example 147, 2-[2-(2,2-difluoroethoxy)phenyl]-N-[2-fluoro-4-(2-hydroxypropan-2-yl)phenyl]-3-oxo-2,3-dihydropyridazine-4-carboxamide] yielded an inhibition at 10 µM of 100%.
With `CC(C)(O)c1ccc(NC(=O)c2ccnn(-c3ccccc3OCC(F)(F)F)c2=O)c(F)c1` [Example 148, N-[2-fluoro-4-(2-hydroxypropan-2-yl)phenyl]-3-oxo-2-[2-(2,2,2-trifluoroethoxy)phenyl]-2,3-dihydropyridazine-4-carboxamide] the inhibition at 10 µM was 100%.
`Cc1cc(C(=O)Nc2ccc(C(C)(C)O)cc2Cl)c(=O)n(-c2ccccc2OCC(F)F)n1` [Example 149, N-[2-chloro-4-(2-hydroxypropan-2-yl)phenyl]-2-[2-(2,2-difluoroethoxy)phenyl]-6-methyl-3-oxo-2,3-dihydropyridazine-4-carboxamide] showed an inhibition at 10 µM of 100%.
With `Cc1cc(C(=O)Nc2c(F)cc(C(C)(C)O)cc2F)c(=O)n(-c2ccccc2OCC(F)F)n1` [Example 150, 2-[2-(2,2-difluoroethoxy)phenyl]-N-[2,6-difluoro-4-(2-hydroxypropan-2-yl)phenyl]-6-methyl-3-oxo-2,3-dihydropyridazine-4-carboxamide] the inhibition at 10 µM was 94%.
